Consider eight compounds from patent publication US8772504B2, “Substituted benzoxazole, benzimidazole, oxazolopyridine and imidazopyridine derivatives as gamma secretase modulators” (Janssen Pharmaceuticals, Inc., priority 2009, dated 2014).

The test system of data set [1] is Aβ42. As to the kind of experiment: Screening for γ-secretase-modulating activity, Method 2: Aβ42 Alphalisa on SKNBE2 cell supernatant. It counts as cell-based. Conditions: Method 2, Table 3c, SKNBE2 cells carrying APP 695 wild type, overnight incubation. In a few lines: (§1)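 SKNBE2 cells expressing wild-type APP695, plated at 10^4 cells/well with compound at several concentrations and incubated overnight at 37° C. Aβ42 (C-terminal capture, N-terminal biotinylated detection) and Aβtotal (N-terminal/4G8 pair) measured in supernatant by AlphaLISA. IC50 from 4-parameter fit of percent of compound-free control.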
(In general: Bead proximity is the source of the signal in Alpha formats.)

In data set [2] the test system is Aβtotal. The data set can be described thus: Screening for γ-secretase-modulating activity, Method 2: Aβtotal Alphalisa on SKNBE2 cell supernatant. It counts as cell-based. Conditions: Method 2, Table 3c, SKNBE2 cells carrying APP 695 wild type, overnight incubation. In a few lines: as §1
Data set [3] concerns Aβ42. As to the kind of experiment: Screening for γ-secretase-modulating activity, Method 1: Aβ42 sandwich ELISA on SKNBE2 cell media. It counts as cell-based. The settings on record: Homo sapiens, SKNBE2 cells carrying APP 695 wild type. In a few lines: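 SKNBE2 cells expressing wild-type APP695 were treated with compound for 18 h in Ultraculture/1% glutamine. Secreted Aβ42 was quantified by sandwich ELISA (C-terminal capture, biotinylated 3D6, TMB, 450 nm), with WST-1 used as a toxicity check. IC50 was derived from 4-parameter fits of % inhibition or % of untreated control.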
(In an ELISA, binding on a coated surface is turned into a signal by an enzyme label.)

Data set [4] deals with Aβtotal. As to the kind of experiment: Screening for γ-secretase-modulating activity, Method 1: Aβtotal sandwich ELISA on SKNBE2 cell media. It counts as cell-based. The settings on record: Homo sapiens, SKNBE2 cells carrying APP 695 wild type. In a few lines: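 SKNBE2 cells expressing wild-type APP 695 were treated with compound for 18 hours. Aβtotal in the medium was measured by sandwich ELISA (6E10 capture, biotinylated 4G8 detection, fluorogenic peroxidase read-out). IC50 came from a 4-parameter fit of % inhibition with top/bottom fixed at 100/0 and Hill slope 1, or as averaged IC50 from % of untreated control.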

Data set [5] deals with Aβ42. As to the kind of experiment: In vivo efficacy Method 1: brain soluble Aβ42 by ELISA. The settings on record: Table 4a, single oral dose, overnight fasted animals, sacrificed after 4 h, soluble fraction of brain homogenates. Further details: species or system mouse. An excerpt:
(§2) To determine whether acute administration of an Aβ42 lowering agent would reduce Aβ42 levels in vivo, non-transgenic rodents, e.g. mice or rats were used. Alternatively, two to three month old Tg2576 mice expressing APP695 containing the “Swedish” variant can be used or a transgenic mouse model developed by Dr. Fred Van Leuven (K.U. Leuven, Belgium) and co-workers, with neuron-specific expression of a clinical mutant of the human amyloid precursor protein [V717I] […] Young transgenic mice have high levels of Aβ in the brain but no detectable Aβ deposition. At approximately 6-8 months of age, the transgenic mice start to display spontaneous, progressive accumulation of β-amyloid (Aβ) in the brain, eventually resulting in amyloid plaques within the subiculum, hippocampus and cortex. Animals treated with the Aβ42 lowering agent were examined and compared to those untreated or treated with vehicle and brain levels of soluble Aβ42 and total Aβ would be quantitated by standard techniques, for example, using ELISA.
(§3) A typical protocol for measuring Aβ42 lowering in vivo is shown but it is only one of many variations that could be used to optimize the levels of detectable Aβ. For example, Aβ42 lowering compounds were formulated in 20% of Captisol® (a sulfobutyl ether of β-cyclodextrin) in water or 20% hydroxypropyl β cyclodextrin. The Aβ42 lowering agents were administered as a single oral dose or by any acceptable route of administration to overnight fasted animals. After 4 h, the animals were sacrificed and Aβ42 levels were analysed.
(§4) Blood was collected by decapitation and exsanguinations in EDTA-treated collection tubes. Blood was centrifuged at 1900 g for 10 minutes (min) at 4° C. and the plasma recovered and flash frozen for later analysis. The brain was removed from the cranium and hindbrain. The cerebellum was removed and the left and right hemisphere were separated. The left hemisphere was stored at −18° C. for quantitative analysis of test compound levels. The right hemisphere was rinsed with phosphate-buffered saline (PBS) buffer and immediately frozen on dry ice and stored at −80° C. until homogenization for biochemical assays.
(§5) All samples were sonicated for 30 seconds on ice at 20% power output (pulse mode). Homogenates were centrifuged at 221.300×g for 50 min. The resulting high speed supernatants were then transferred to fresh tubes and were optionally further purified before the next step. A portion of the supernatant was neutralized with 10% 0.5 M Tris-HCl and this was used to quantify Aβtotal.
(§6) The obtained supernatants were purified with Water Oasis HLB reverse phase columns (Waters Corp., Milford, Mass.) to remove non-specific immunoreactive material from the brain lysates prior subsequent Aβ detection. Using a vacuum manifold, all solutions were passed through the columns at a rate of approximately 1 ml per min, so the vacuum pressure was adjusted accordingly throughout the procedure. Columns were preconditioned with 1 ml of 100% MeOH, before equilibration with 1 ml of H2O, Non-neutralized brain lysates were loaded onto the columns. The loaded samples were then washed twice with the first wash performed with 1 ml of 5% MeOH, and the second wash with 1 ml of 30% MeOH. Finally, the Aβ was eluted from the columns and into 100×30 mm glass tubes, with a solution of 90% MeOH with 2% NH4OH. The eluate was then transferred into 1.5 ml tubes and concentrated in a speed-vac concentrator on high heat for about 1.5-2 h at 70° C. The concentrated Aβ was then resuspended in UltraCULTURE General Purpose Serum-Free Medium (Cambrex Corp., Walkersville, Md.) plus Protease Inhibitors added.
To quantify the amount of Aβ42 in the soluble fraction of the brain homogenates, commercially available Enzyme-Linked-Immunosorbent-Assay (ELISA) kits were used (e.g. Innotest® β-Amyloid(1-42), Innogenetics N.V., Ghent, Belgium). The Aβ42 ELISA was performed using the plate provided with the kit only.

In data set [6] the test system is Aβtotal. As to the kind of experiment: In vivo efficacy Method 1: brain soluble Aβtotal by ELISA. Set-up: species or system mouse. The settings on record: Table 4a, single oral dose, overnight fasted animals, sacrificed after 4 h, soluble fraction of brain homogenates.
Description: as §2, §3, §4, §5
as §6, with “added. […]” for “added.”

Data set [7] has as its system Aβ42. The data set can be described thus: In vivo efficacy Method 2: brain soluble Aβ42 by ELISA. Set-up: species or system mouse. The settings on record: Table 4b, single oral dose, overnight fasted non-transgenic animals, sacrificed after 4 h, soluble fraction of brain homogenates.
Description: (§7) To determine whether acute administration of an Aβ42 lowering agent would reduce Aβ42 levels in vivo, non-transgenic rodents, e.g. mice or rats were used. Animals treated with the Aβ42 lowering agent were examined and compared to those untreated or treated with vehicle and brain levels of soluble Aβ42 and total Aβ were quantitated by standard techniques, for example, using ELISA. Treatment periods varied from hours (h) to days and were adjusted based on the results of the Aβ42 lowering once a time course of onset of effect could be established.
as §3, §4
(§8) Mouse brains from non-transgenic animals were resuspended in 8 volumes of 0.4% DEA (diethylamine)/50 mM NaCl containing protease inhibitors (Roche-11873580001 or 04693159001) per gram of tissue, e.g. for 0.158 g brain, add 1.264 ml of 0.4% DEA. All samples were homogenized in the FastPrep-24 system (MP Biomedicals) using lysing matrix D (MPBio #6913-100) at 6 m/s for 20 seconds. Homogenates were centrifuged at 221.300×g for 50 min. The resulting high speed supernatants were then transferred to fresh eppendorf tubes. Nine parts of supernatant were neutralized with 1 part 0.5 M Tris-HCl pH 6.8 and used to quantify Aβtotal and Aβ42.
(§9) To quantify the amount of Aβtotal and Aβ42 in the soluble fraction of the brain homogenates, Enzyme-Linked-Immunosorbent-Assays were used . Briefly, the standards (a dilution of synthetic Aβ1-40 and Aβ1-42, Bachem) were prepared in 1.5 ml Eppendorf tube in Ultraculture, with final concentrations ranging from 10000 to 0.3 pg/ml. The samples and standards were co-incubated with HRPO-labelled N-terminal antibody for Aβ42 detection and with the biotinylated mid-domain antibody 4G8 for Aβtotal detection. 50 μl of conjugate/sample or conjugate/standards mixtures were then added to the antibody-coated plate (the capture antibodies selectively recognize the C-terminal end of Aβ42, antibody JRF/cAβ42/26, for Aβ42 detection and the N-terminus of Aβ, antibody JRF/rAβ/2, for Aβtotal detection). The plate was allowed to incubate overnight at 4° C. in order to allow formation of the antibody-amyloid complex. Following this incubation and subsequent wash steps the ELISA for Aβ42 quantification was finished by addition of Quanta Blu fluorogenic peroxidase substrate according to the manufacturer's instructions (Pierce Corp., Rockford, Ill.). A reading was performed after 10 to 15 min (excitation 320/emission 420).
In this model at least 20% Aβ42 lowering compared to untreated animals would be advantageous.

Data set [8] concerns Aβtotal. As to the kind of experiment: In vivo efficacy Method 2: brain soluble Aβtotal by ELISA. Further details: species or system mouse. Conditions: Table 4b, single oral dose, overnight fasted non-transgenic animals, sacrificed after 4 h, soluble fraction of brain homogenates.
Description: as §7, §3, §4, §8, §9
For Aβtotal detection, a Streptavidine-Peroxidase-Conjugate was added, followed 60 min later by an additional wash step and addition of Quanta Blu fluorogenic peroxidase substrate according to the manufacturer's instructions (Pierce Corp., Rockford, Ill.). A reading was performed after 10 to 15 min (excitation 320 nm/emission 420 nm).

Where [9] appears, read: Table 3a, 18 hours, XLfit, top/bottom fixed to 100 and 0, hill slope 1.
Where [10] appears, read: Table 3b, non-linear regression of % of control, averaged IC50 values.

As for `CC(=O)Nc1cccc(-c2nc3c(Nc4ccc(-n5cnc(C)c5)c(F)c4)nc(C)cc3n2C)c1` [Compound 141], the melting point (as a rule, the temperature of the solid-liquid transition) is 257.2 °C. Besides, the half-inhibitory concentration (IC50) (in general, the concentration that gives 50% inhibition) in the data set on Aβ42 [1] (Homo sapiens) stood at 79 nM. Moreover, in the data set on Aβtotal [2] (Homo sapiens), the 50% inhibitory concentration (IC50) was greater than 10000 nM.

On to `Cc1cn(-c2ncc(Nc3cccc4c3nc(-c3ccc(F)cc3)n4C)cn2)cn1` [Compound 6], for which the melting point was found to be 201.7 °C. Further, inhibition in the data set on Aβ42 [3] (setting [9]) was half-maximal at 29 nM (IC50). In addition, the IC50 in the data set with Aβ42 [3] (setting [10]) was 28 nM. In the data set on Aβtotal [4] (setting [9]), this compound displayed a concentration for half-maximal inhibition (IC50) greater than 1000 nM. Besides, the half-inhibitory concentration (IC50) with Aβtotal [4] (setting [10]) is greater than 3000 nM. Also, the “Aβ42 (% Ctrl) _Mean” value in the data set on Aβ42 [5] was 66 % Ctrl. The “Aβtotal (% Ctrl) _Mean” value in the data set with Aβtotal [6] came to 91 % Ctrl.

For the compound `COc1nc(Nc2cc(C(C)C)nc3c2nc(-c2ccc(F)cc2)n3C)ccc1-n1cnc(C)c1` [Compound 111], the melting point turned out to be 172.3 °C. This compound had an IC50 in the data set on Aβ42 [1] (Homo sapiens) of 4 nM. The compound also had an IC50 in the data set with Aβtotal [2] (Homo sapiens) of 4790 nM.

`COc1cc(-c2nc3c(Nc4ccc(-n5cnc(C)c5)c(F)c4)nc(C)cc3n2C)ccc1Cl` [Compound 136]: the IC50 with Aβ42 [1] is 9 nM; with Aβtotal [2], greater than 10000 nM. The “Aβ42 (% Ctrl) _Mean” value in the data set with Aβ42 [7] is 77 % Ctrl. For the same compound, in the data set on Aβtotal [8], the “Aβtotal (% Ctrl) _Mean” value is listed as 104 % Ctrl.

Turning to `COc1nc(Nc2cccc3c2nc(-c2ccc(F)cc2)n3C(C)C)ccc1-n1cnc(C)n1` [Compound 162], the IC50 turned out to be 5 nM in the data set on Aβ42 [1] and 5620 nM with Aβtotal [2]. For the same compound, in the data set with Aβ42 [7], the “Aβ42 (% Ctrl) _Mean” value is 79 % Ctrl. Also, the “Aβtotal (% Ctrl) _Mean” value in the data set on Aβtotal [8] turned out to be 97 % Ctrl.

As for `COc1cc(Nc2cccc3c2nc(N2CCC(F)(F)CC2)n3C)ccc1-n1cnc(C)c1` [Compound 12], the melting point came to 81.2 °C. For the same compound, the half-maximal inhibitory concentration (IC50) with Aβ42 [3] (setting [9]) is 84 nM. Besides, the IC50 with Aβ42 [3] (setting [10]) is 76 nM. In the data set with Aβtotal [4] (setting [9]), this compound had an IC50 greater than 3000 nM. Further, the IC50 in the data set on Aβtotal [4] (setting [10]) is greater than 3000 nM.

In the case of `COc1nc(Nc2cccc3c2nc(-c2cccc(C(F)(F)F)c2)n3C)ccc1-n1cnc(C)c1` [Compound 167], the IC50 in the data set with Aβ42 [1] was 7 nM; in the data set on Aβtotal [2] it was 5250 nM. In the data set on Aβ42 [7], the “Aβ42 (% Ctrl) _Mean” value came out at 46 % Ctrl. Also, the “Aβtotal (% Ctrl) _Mean” value with Aβtotal [8] was found to be 84 % Ctrl.

As to `COc1nc(Nc2cccc3c2nc(-c2cccc(NC(C)=O)c2)n3C)ccc1-n1cnc(C)c1` [Compound 174], the half-inhibitory concentration (IC50) with Aβ42 [1] (Homo sapiens) was 38 nM; with Aβtotal [2] (Homo sapiens), 9550 nM. In addition, the “Aβ42 (% Ctrl) _Mean” value in the data set with Aβ42 [7] came to 90 % Ctrl. The “Aβtotal (% Ctrl) _Mean” value in the data set on Aβtotal [8] amounted to 104 % Ctrl.
